Measurements taken from patent publication US6762046B2, “Polypeptide having β-fructofuranosidase activity” (Kabushiki Kaisha Hayashibara Seibutsu Kagaku Kenkyujo, priority 1996, dated 2004).

B1: polypeptide in Example 2-1: polypeptide with β-fructofuranosidase activity produced by transformant BBF4 (Escherichia coli), containing the amino acid sequence of SEQ ID NO:3 (protein)
chain: MNSGDYKEDYGFAHITRADMLKIPGQQNSPQFKVPQFNASAIKNIDSAKGYDKSGNLIDLDVWDSWPLQNADGTAANYHGYHIVSALAGDPKNSDDTPLHLFYQKVGDTSIDSWKNAGRVFEDMDKFVPNDPYLKYQTQEWSGSATLTKDGQVRLFYTDYSGNPEDGGTGAGNQIISTAQVNLSQPDAATLKVDGVSDHKSVFDGGDGTVYQNIQQFIDEGKWISGDNHTLRDPHYVEDKGHKYLVFEANTGTTDGYQGDQSFNNKAYYGGSDVFFQNEKNKLLQSPKKQIASLANGALGIVELADDYTVKSVMKPLVASNTVADEVERANIFKMNNKWYLFTDSRGSKMTSDGINDKDVYMLGPGGDSLNGPHNPINETGLVLNMNLDPADLTHTYSHCGIPHPEGNNVVLTSYMTNRGFYPEHHSHLRDKLGVNIKGSDTSGGENSSGQGQFP

Tests used:
[1] = system: polypeptide having β-fructofuranosidase activity; test: Specificity for fructofuranosyl transfer from sucrose to acceptors (TLC); assay type: biochemical, Bacillus sp. V230; parameters: key: Compared with a reaction mixture of sucrose, “−” means unchanged; +: the size and color of a spot for fructofuranosyl acceptor reduced slightly, and spot for fructofuransyl-transferred product was slightly detected; ++: the size and color of a spot for fructofuranosyl acceptor more reduced and a spot for fructofuransyl transferred product was clearly observed; details: acceptor and sucrose (donor) in equal weight, 10 w/v %, 2 units/g sucrose of polypeptide of Example 2-1, 40° C., pH 5.5, 24 hours
Method: Using as fructofuranosyl acceptors the monosaccharides, oligosaccharides and alcohols in Table 1, the specificity of the present polypeptide for fructofuranosyl transfer was studied: Any one of the fructofuranosyl acceptors in Table 1 and sucrose as a fructofuranosyl donor were mixed in an equal amount by weight, and the mixture was dissolved in water into a 10 w/v % aqueous solution which was then mixed with 2 units/g sucrose, d.s.b., of a polypeptide obtained by the method in Example 2-1, and reacted at 40° C. and pH 5.5 for 24 hours. Thereafter, the reaction mixture was separated by TCL similarly as above, and the plate was colored by spraying 0.5 N phosphate solution containing 0.2 w/v % naphthoresorcinol, and the plate was heated at 110° C. for 5 min to color and detect fructofuranosyl-transferred products.

[2] = system: polypeptide having β-fructofuranosidase activity; test: Action of the polypeptide on saccharide substrates (release of fructose, TLC); assay type: biochemical, Bacillus sp. V230; details: 2 w/v % substrate, 2 units/g substrate of polypeptide of Example 2-1, 40° C., pH 5.5, 24 hours
Method: An aqueous solution, containing as a substrate sucrose, raffinose, erlose, stachyose, lactosucrose, xylosylfructoside, maltose, cellobiose, lactose, inulin or levan in a concentration of 2 w/v %, was mixed with 2 units/g substrate, d.s.b., of a polypeptide obtained by the method in Example 2-1 and reacted at 40° C. and pH 5.5 for 24 hours.
An adequate amount of each reaction mixture was spotted on “KIESELGEL 60”, an aluminum plate for thin layer chromatography (TLC) commercialized by Merck & Co., Inc., Rahway, USA, developed at ambient temperature using a developing solvent system of 1-butanol, pyridine and water (=7:3:1 by volume), and dried. When the reaction mixture contained fructose, the plate was colored by spraying 0.5 N phosphate solution containing 0.2 w/v % naphthoresorcinol, and heated at 110° C. for 5 min, while the plate was colored by spraying a mixture solution of 20 w/v % sulfuric acid in methanol and heated at 110° C. for 10 min.

Thermal stability = assay type: physicochemical; details: incubated for 60 min in 50 mM acetate buffer pH 6.0
[3] = β-fructofuranosidase activity assay (reducing power, Somogyi-Nelson's method); assay type: biochemical; details: sucrose substrate, 20 mM acetate buffer pH 6.0 with 5 mM calcium chloride, 40° C., 10 min
Method: The activity of the present β-fructofuranosidase was assayed as follows: Sucrose as a substrate was dissolved in 20 mM acetate buffer (pH 6.0) containing 5 mM calcium chloride to give a concentration of 0.1 w/v %. To 5 ml of the solution was added 0.2 ml of a test sample, and the mixture was incubated at 40° C. for 10 min, followed by suspending the enzymatic reaction by the addition of 0.2 ml of the Somogyl copper solution and assaying the reducing power of the reaction mixture by the Somogyi-Nelson's method. As a control, a control solution, which was preheated at 100° C. for 10 min to inactivate the enzyme, was treated similarly as above. Under the above reaction conditions, one unit β-frustofuranosidase activity is defined as the amount of enzyme or polypeptide which gives a reducing power equal to that of 2 μmole of glucose per minute.

Optimum temperature = assay type: biochemical; details: 10 min, 20 mM acetate buffer pH 6.0
Optimum pH = assay type: biochemical; details: incubated at 40° C. for 10 min in 20 mM buffers

Row | Molecule | Formation of fructofuranosyl-transferred product [1] | also measured
1 | CCCCO [1-Butanol] | − | 
2 | CCCO [1-Propanol] | − | 
3 | CCC(C)O (centres unmarked) [2-Butanol] | − | 
4 | CC(C)O [2-Propanol] | − | 
5 | O=C[C@H](O)[C@@H](O)[C@H](O[C@@H]1O[C@H](CO)[C@@H](O)[C@H](O)[C@H]1O)[C@H](O)CO [Cellobiose] | ++ | action on substrate to release fructose [2]: did not substantially act on
6 | O=C(CO)[C@@H](O)[C@H](O)[C@H](O)CO [D-Fructose] | + | 
7 | O=C[C@H](O)[C@@H](O)[C@@H](O)[C@H](O)CO [D-Galactose] | ++ | 
8 | O=C[C@@H](O)[C@@H](O)[C@H](O)[C@H](O)CO [D-Mannose] | + | 
9 | OC[C@@H](O)[C@@H](O)[C@H](O)[C@@H](O)CO [D-Sorbitol] | ++ | 
10 | OC[C@@H](O)[C@H](O)[C@@H](O)CO [D-Xylitol] | ++ | 
11 | O=C[C@H](O)[C@@H](O)[C@H](O)CO [D-Xylose] | ++ | 
12 | CCO [Ethanol] | + | 
13 | OCCO [Ethylene glycol] | ++ | 
14 | OCC(O)CO [Glycerol] | ++ | 
15 | OC[C@H]1O[C@H](OC[C@H]2OC(O)[C@H](O)[C@@H](O)[C@@H]2O)[C@H](O)[C@@H](O)[C@@H]1O (some centres unmarked) [Isomaltose] | ++ | 
16 | OC[C@H]1O[C@H](O[C@H]2C(O)O[C@H](CO)[C@@H](O)[C@@H]2O)[C@H](O)[C@@H](O)[C@@H]1O (some centres unmarked) [Kojibiose] | + | 
17 | O=C[C@H](O)[C@@H](O)[C@@H](O)CO [L-Arabinose] | + | 
18 | C[C@H](O)[C@H](O)[C@@H](O)[C@@H](O)C=O [L-Rhamnose] | + | 
19 | O=C(CO)[C@@H](O)[C@H](O)[C@@H](O)CO [L-Sorbose] | + | 
20 | OC[C@H]1O[C@@H](O[C@H]2[C@H](O)[C@@H](O)C(O)O[C@@H]2CO)[C@H](O)[C@@H](O)[C@H]1O (some centres unmarked) [Lactose] | ++ | action on substrate to release fructose [2]: did not substantially act on

Row | Molecule | Formation of fructofuranosyl-transferred product [1] | also measured
21 | OC[C@@H](O)[C@@H](O[C@H]1O[C@H](CO)[C@@H](O)[C@H](O)[C@H]1O)[C@H](O)[C@@H](O)CO [Maltitol] | ++ | 
22 | OC[C@H]1O[C@H](O[C@H]2[C@H](O)[C@@H](O)[C@H](O)O[C@@H]2CO)[C@H](O)[C@@H](O)[C@@H]1O [Maltose] | ++ | action on substrate to release fructose [2]: did not substantially act on
23 | OC[C@H]1O[C@H](OCC2O[C@@H](O)[C@H](O)[C@@H](O)[C@@H]2O)[C@H](O)[C@@H](O)[C@H]1O (some centres unmarked) [Melibiose] | ++ | 
24 | CO [Methanol] | + | 
25 | OC[C@H]1O[C@@H](O[C@H]2O[C@H](CO)[C@@H](O)[C@H](O)[C@H]2O)[C@H](O)[C@@H](O)[C@@H]1O [Neotrehalose] | + | 
26 | OC[C@H]1O[C@H](OC[C@H]2OC(O)(CO)[C@@H](O)[C@@H]2O)[C@H](O)[C@@H](O)[C@@H]1O (some centres unmarked) [Palatinose] | + | 
27 | OC[C@H]1O[C@H](OC[C@H]2O[C@H](O[C@H]3[C@H](O)[C@@H](O)C(O)O[C@@H]3CO)[C@H](O)[C@@H](O)[C@@H]2O)[C@H](O)[C@@H](O)[C@@H]1O (some centres unmarked) [Panose] | ++ | 
28 | OC[C@H]1O[C@H](OC[C@H]2O[C@H](O[C@]3(CO)O[C@H](CO)[C@@H](O)[C@@H]3O)[C@H](O)[C@@H](O)[C@@H]2O)[C@H](O)[C@@H](O)[C@H]1O [Raffinose] | + | action on substrate to release fructose [2]: acted on
29 | OC[C@H]1O[C@H](O[C@H]2O[C@H](CO)[C@@H](O)[C@H](O)[C@H]2O)[C@H](O)[C@@H](O)[C@@H]1O [Trehalose] | ++ | 
30 | O=C(CO)[C@@H](O[C@H]1O[C@H](CO)[C@@H](O)[C@H](O)[C@H]1O)[C@H](O)[C@H](O)CO [Turanose] | + | 
31 | OC[C@H]1O[C@@](CO)(O[C@H]2O[C@H](CO)[C@@H](O[C@H]3O[C@H](CO)[C@@H](O)[C@H](O)[C@H]3O)[C@H](O)[C@H]2O)[C@@H](O)[C@@H]1O [erlose] |  | action on substrate to release fructose [2]: acted on
32 | OC[C@H]1O[C@@H](O[C@H]2[C@H](O)[C@@H](O)[C@@H](O[C@]3(CO)O[C@H](CO)[C@@H](O)[C@@H]3O)O[C@@H]2CO)[C@H](O)[C@@H](O)[C@H]1O [lactosucrose] |  | action on substrate to release fructose [2]: acted on
33 | OC[C@H]1O[C@H](OC[C@H]2O[C@H](OC[C@H]3O[C@H](O[C@]4(CO)O[C@H](CO)[C@@H](O)[C@@H]4O)[C@H](O)[C@@H](O)[C@@H]3O)[C@H](O)[C@@H](O)[C@H]2O)[C@H](O)[C@@H](O)[C@H]1O [stachyose] |  | action on substrate to release fructose [2]: acted on
34 | OC[C@H]1O[C@@](CO)(O[C@H]2O[C@H](CO)[C@@H](O)[C@H](O)[C@H]2O)[C@@H](O)[C@@H]1O [sucrose] |  | action on substrate to release fructose [2]: acted on
35 | OC[C@H]1O[C@](CO)(O[C@H]2OC[C@@H](O)[C@H](O)[C@H]2O)[C@@H](O)[C@@H]1O [xylosylfructoside] |  | action on substrate to release fructose [2]: acted on
36 | Maltotriose | ++ | 
37 | inulin |  | action on substrate to release fructose [2]: did not substantially act on
38 | levan |  | action on substrate to release fructose [2]: did not substantially act on
39 | B1 |  | thermal stability (stable up to temperature) (Thermal stability): ≤ 45 °C; specific activity (β-fructofuranosidase) [3]: 205 units/mg protein; optimum temperature (Optimum temperature; in the absence of calcium ion): ~45 °C; optimum temperature (Optimum temperature; in the presence of 5 mM calcium ion): about 50 °C; optimum pH (Optimum pH): 5.5-6.0
